From patent US7998965B2, “Glutamate aggrecanase inhibitors” (Wyeth LLC, priority 2005, dated 2011)

Key:
[1] = target: T1, purified recombinant human Aggrecanase-1 (rAgg1) (Homo sapiens, UniProt O75173); test: In vitro fluorescence screen for Aggrecanase-1 inhibitors; assay type: biochemical; settings: Table 1; for IC50: read-out: Agg1 IC50; for Ki: enzyme not given, column follows Agg1 IC50, read-out: Ki
T1 sequence (O75173 213-837): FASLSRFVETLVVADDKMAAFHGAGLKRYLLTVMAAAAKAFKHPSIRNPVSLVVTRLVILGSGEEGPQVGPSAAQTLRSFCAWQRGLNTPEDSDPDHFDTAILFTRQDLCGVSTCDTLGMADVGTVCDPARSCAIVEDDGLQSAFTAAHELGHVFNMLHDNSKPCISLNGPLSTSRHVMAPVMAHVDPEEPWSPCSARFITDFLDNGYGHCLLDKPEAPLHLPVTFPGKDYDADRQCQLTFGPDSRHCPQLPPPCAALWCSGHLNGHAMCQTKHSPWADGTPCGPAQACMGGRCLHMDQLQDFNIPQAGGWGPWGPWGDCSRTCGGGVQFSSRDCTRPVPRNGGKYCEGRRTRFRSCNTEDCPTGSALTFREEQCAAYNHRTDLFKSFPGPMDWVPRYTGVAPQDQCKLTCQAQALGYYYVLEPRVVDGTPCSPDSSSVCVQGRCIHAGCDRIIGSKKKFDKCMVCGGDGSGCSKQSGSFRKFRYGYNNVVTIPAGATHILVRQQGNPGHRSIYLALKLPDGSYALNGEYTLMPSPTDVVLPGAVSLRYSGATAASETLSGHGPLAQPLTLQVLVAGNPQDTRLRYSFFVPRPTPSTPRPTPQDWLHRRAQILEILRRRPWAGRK

[2] = target: T2, purified recombinant human Aggrecanase-2 (Ag2t-Phe628-Strep) (Homo sapiens, UniProt Q9UNA0); test: In vitro fluorescence screen for Aggrecanase-2 inhibitors; assay type: biochemical; settings: Table 1; read-out: Agg 2 IC50
T2 construct: the form used is denoted as Ag2t-Phe628-Strep (MW=41,737)
T2 sequence (Q9UNA0 262-628): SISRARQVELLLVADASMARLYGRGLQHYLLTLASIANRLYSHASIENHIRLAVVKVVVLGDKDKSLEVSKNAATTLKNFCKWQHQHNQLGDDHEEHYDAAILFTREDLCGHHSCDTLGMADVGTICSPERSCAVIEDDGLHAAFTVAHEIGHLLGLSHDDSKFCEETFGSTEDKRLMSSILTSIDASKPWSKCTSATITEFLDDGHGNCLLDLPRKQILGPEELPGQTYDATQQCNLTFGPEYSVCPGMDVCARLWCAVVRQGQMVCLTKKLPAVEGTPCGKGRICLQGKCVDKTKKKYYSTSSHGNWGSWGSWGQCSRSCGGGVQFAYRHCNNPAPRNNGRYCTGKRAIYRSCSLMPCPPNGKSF

[3] = target: T3, recombinant human catalytic domain of MMP-13 (Homo sapiens, UniProt P45452); test: In vitro fluorescence assay of MMP-13 activity; assay type: biochemical; settings: Table 1; unit inferred
T3 construct: catalytic domain of MMP-13 (165 amino acids, residues 104-268, 19 kDa)

[4] = target: T4, recombinant human catalytic domain of MMP-14 (Homo sapiens, UniProt P50281); test: In vitro fluorescence assay of MMP-14 activity; assay type: biochemical; settings: Table 1; unit inferred
T4 construct: 177 amino acids corresponding to Tyr89-Gly265 of mature human enzyme; purchased Chemicon International, Inc. CC1041

[5] = system: bovine articular cartilage treated with Interleukin 1 alpha (IL-1α); test: Bovine articular cartilage explant cultures: inhibition of degradation of proteoglycan; assay type: cell-based; settings: inhibitory effect expressed as percentage, concentration not printed
How it was run: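 Bovine metacarpal cartilage discs (6 mm), equilibrated in serum-free DMEM-based medium, were treated with 5 ng/ml IL-1 plus compound (working solutions 0.1-10 μg/ml), with medium collected and replaced on days 1, 2 and 3. Released proteoglycan was measured by DMMB absorbance at 520 nm against chondroitin sulphate standards, expressed as μg per mg cartilage, and inhibition given as percentage.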

[6] = target: T5, MMP-1 (Homo sapiens, UniProt P03956); test: MMP-1 of Table 1; assay type: biochemical; settings: for IC50: unit inferred; for MMP-1: unit not given
T5 sequence (P03956 100-469): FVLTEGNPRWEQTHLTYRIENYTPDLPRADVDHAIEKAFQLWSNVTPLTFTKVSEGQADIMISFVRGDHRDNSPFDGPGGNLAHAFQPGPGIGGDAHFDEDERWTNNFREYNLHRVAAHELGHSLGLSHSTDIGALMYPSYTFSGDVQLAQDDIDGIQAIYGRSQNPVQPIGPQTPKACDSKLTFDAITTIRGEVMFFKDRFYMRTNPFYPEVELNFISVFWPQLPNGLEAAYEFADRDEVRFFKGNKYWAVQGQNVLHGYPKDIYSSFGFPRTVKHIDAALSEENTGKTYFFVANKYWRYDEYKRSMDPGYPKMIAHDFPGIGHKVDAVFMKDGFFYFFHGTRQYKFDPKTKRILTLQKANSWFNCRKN

[7] = target: T6, recombinant human MMP-2 (Homo sapiens, UniProt P08253); test: In vitro fluorescence assay of MMP-2 activity
T6 sequence (P08253 110-660): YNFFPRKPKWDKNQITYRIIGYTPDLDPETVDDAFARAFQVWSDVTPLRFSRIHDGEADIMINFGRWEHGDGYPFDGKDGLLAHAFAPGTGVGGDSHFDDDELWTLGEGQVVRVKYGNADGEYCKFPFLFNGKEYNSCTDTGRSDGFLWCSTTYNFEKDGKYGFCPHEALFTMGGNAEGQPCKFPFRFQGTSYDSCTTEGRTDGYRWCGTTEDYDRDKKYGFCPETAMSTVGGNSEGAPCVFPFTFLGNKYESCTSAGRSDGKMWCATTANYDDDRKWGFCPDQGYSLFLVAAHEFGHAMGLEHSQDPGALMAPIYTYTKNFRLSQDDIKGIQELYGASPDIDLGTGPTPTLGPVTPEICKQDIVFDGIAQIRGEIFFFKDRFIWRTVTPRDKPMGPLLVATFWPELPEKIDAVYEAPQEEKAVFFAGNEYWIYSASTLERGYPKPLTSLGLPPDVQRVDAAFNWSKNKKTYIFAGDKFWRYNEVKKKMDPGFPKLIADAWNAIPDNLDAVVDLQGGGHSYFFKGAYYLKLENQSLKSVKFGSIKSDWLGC
Method: A continuous assay was used in which the substrate is a synthetic peptide containing a fluorescent group (7-methoxycoumarin; Mca), which is quenched by energy transfer to a 2,4-dinitrophenyl group. […] The source of enzyme in the assay was the recombinant human MMP-2 (66 kDa; Oncogene Research Products (catalog number PF023 from Calbiochem)). The substrate used was the peptide Mca-PQGL-(3-[2,4-dinitrophenyl]-L-2,3-diaminopropionyl)-AR-OH. The assay buffer consisted of 50 mM Hepes (pH 7.4), 100 mM NaCl, 5 mM CaCl2, and 0.005% Brij-35. […] The plates were then incubated at 30° C. for 15 minutes. The enzymatic reactions were initiated by adding the substrate to a final concentration of 20 μM, and mixing 10 times with a pipette. The final DMSO concentration in the assay was 6.0%.
Plots of the inhibitor concentration vs. the percent inhibition were fit to the following equation: y=(a−d)/[^1+(x/c)^b]+d, a general sigmoidal curve with Hill slope, a to d. x is the inhibitor concentration under test. y is the percent inhibition. a is the limiting response as x approaches zero. As x increases without bound, y tends toward its limit d. c is the inflection point (IC50) for the curve. That is, y is halfway between the lower and upper asymptotes when x=c. b is the slope factor or Hill coefficient.

[8] = Table 1, first of two columns headed bovine
[9] = Table 1, second of two columns headed bovine

Structure (SMILES) | IC50 [1] | IC50 [2] | IC50 [3] | IC50 [4] | IC50 [6] | IC50 [7] | Ki [1] | MMP-1 [6] | bovine [5, 8] | bovine [5, 9]
COc1cc(CNC(=O)[C@H](CCC(=O)O)NC(=O)c2ccc(-c3ccccc3)cc2)cc(OC)c1 [Example 8CC, N^2-(1,1′-biphenyl-4-ylcarbonyl)-N^1-(3,5-dimethoxybenzyl)-L-α-glutamine] | 0.022 µM | 0.121 µM | ~22 µM | ~25 µM | – | 5.65 µM | 0.019 µM | no inh | 94% | 71%
Cc1ccc(CNC(=O)[C@H](CCC(=O)O)NC(=O)c2ccc(-c3ccccc3)cc2)cc1C [Example 8DD, N^2-(1,1′-biphenyl-4-ylcarbonyl)-N^1-(3,4-dimethylbenzyl)-L-α-glutamine] | 0.094 µM | 0.93 µM | ~22 µM | 16.2 µM | – | 4.58 µM | – | no inh | 89% | 50%
COc1ccc(CNC(=O)[C@H](CCC(=O)O)NC(=O)c2ccc(-c3ccccc3)cc2)cc1OC [Example 8F, N^2-(1,1′-biphenyl-4-ylcarbonyl)-N^1-(3,4-dimethoxybenzyl)-L-α-glutamine] | 0.03 µM | 0.304 µM | ~22 µM | ~25 µM | > 200 µM | 5.63 µM | 0.012 µM | – | 81% | 56%
O=C(O)CC[C@H](NC(=O)c1ccc(-c2ccccc2)cc1)C(=O)NCc1cccc(I)c1 [Example 8JJ, N^2-(1,1′-biphenyl-4-ylcarbonyl)-N^1-(3-iodobenzyl)-L-α-glutamine] | 0.045 µM | 1.1 µM | 17 µM | > 200 µM | > 200 µM | 27 µM | 0.033 µM | – | 70% | 17%
COc1ccc(CCNC(=O)[C@H](CCC(=O)O)NC(=O)c2ccc(-c3ccccc3)cc2)cc1OC [Example 8L, N^2-(1,1′-biphenyl-4-ylcarbonyl)-N^1-[2-(3,4-dimethoxyphenyl)ethyl]-L-α-glutamine] | 0.055 µM | 0.189 µM | ~50 µM | 21.5 µM | > 100 µM | 10.5 µM | – | – | 87% | 79%
COc1ccc(CCNC(=O)[C@H](CCC(=O)O)NC(=O)c2ccc(-c3ccccc3)cc2)cc1 [Example 8M, N^2-(1,1′-biphenyl-4-ylcarbonyl)-N^1-[2-(4-methoxyphenyl)ethyl]-L-α-glutamine] | 0.12 µM | 0.856 µM | ~50 µM | 13 µM | > 100 µM | 8 µM | – | – | 85% | 17%
O=C(O)CC[C@H](NC(=O)c1ccc(-c2ccccc2)cc1)C(=O)NCc1ccc(F)c(C(F)(F)F)c1 [Example 8NNN, N^2-(1,1′-biphenyl-4-ylcarbonyl)-N^1-[4-fluoro-3-(trifluoromethyl)benzyl]-L-α-glutamine] | 0.1 µM | 1.75 µM | 14 µM | > 50 µM | > 50 µM | > 10 µM | 0.219 µM | – | 60% | 0%

Now from value to molecule, other results behind:

IC50 [1] | IC50 [2] | IC50 [3] | IC50 [4] | IC50 [6] | IC50 [7] | Ki [1] | MMP-1 [6] | Structure (SMILES) | bovine [5, 8] | bovine [5, 9]
0.46 µM | 1.9 µM | ~50 µM | ~25 µM | > 100 µM | 5.6 µM | – | – | O=C(O)CC[C@H](NC(=O)c1ccc(-c2ccccc2)cc1)C(=O)NC1CC1 [Example 8B, N^2-(1,1′-biphenyl-4-ylcarbonyl)-N^1-cyclopropyl-L-α-glutamine] | 54% | 22%
0.11 µM | 1.2 µM | ~50 µM | ~25 µM | > 100 µM | 6 µM | – | – | CCCCNC(=O)[C@H](CCC(=O)O)NC(=O)c1ccc(-c2ccccc2)cc1 [Example 8C, N^2-(1,1′-biphenyl-4-ylcarbonyl)-N^1-butyl-L-α-glutamine] | 68% | 34%
0.09 µM | 0.746 µM | ~25 µM | ~25 µM | > 200 µM | 3.7 µM | – | – | O=C(O)CC[C@H](NC(=O)c1ccc(-c2ccccc2)cc1)C(=O)NC1CCCCCCC1 [Example 8E, N^2-(1,1′-biphenyl-4-ylcarbonyl)-N^1-cyclooctyl-L-α-glutamine] | 79% | 34%
0.08 µM | 0.614 µM | ~50 µM | ~25 µM | > 100 µM | ~50 µM | – | – | O=C(O)CC[C@H](NC(=O)c1ccc(-c2ccccc2)cc1)C(=O)NC1CCCC1 [Example 8G, N^2-(1,1′-biphenyl-4-ylcarbonyl)-N^1-cyclopentyl-L-α-glutamine] | 76% | 39%
0.2 µM | 0.266 µM | ~50 µM | ~25 µM | > 100 µM | 3.31 µM | – | – | O=C(O)CC[C@H](NC(=O)c1ccc(-c2ccccc2)cc1)C(=O)NC1C2CC3CC(C2)CC1C3 (stereo partly drawn) [Example 8H, N^1-2-adamantyl-N^2-(1,1′-biphenyl-4-ylcarbonyl)-L-α-glutamine] | 85% | 67%
0.054 µM | 0.3 µM | 30 µM | > 200 µM | > 200 µM | > 20 µM | 0.054 µM | – | CCCCCCCNC(=O)[C@H](CCC(=O)O)NC(=O)c1ccc(-c2ccccc2)cc1 [Example 8JJJ, N^2-(1,1′-biphenyl-4-ylcarbonyl)-N^1-heptyl-L-α-glutamine] | 74% | 26%
0.075 µM | 1.3 µM | 31.4 µM | ~22 µM | – | 5 µM | 0.082 µM | no inh | Cc1cccc(CNC(=O)[C@H](CCC(=O)O)NC(=O)c2ccc(-c3ccccc3)cc2)c1 [Example 8O, N^2-(1,1′-biphenyl-4-ylcarbonyl)-N^1-(3-methylbenzyl)-L-α-glutamine] | 69% | 34%
